We go through one molecule from patent US12612386B2, “Heteroaryl-triazole compounds as pesticides” (Bayer Aktiengesellschaft, priority 2020, dated 2026).

SMILES strings stand for the structures.

Holding throughout (assay type): in vivo
The test system of test [1] is adult engorged female ticks (Rhipicephalus microplus). In words: Rhipicephalus (Boophilus) microplus injection test. The conditions noted are these: 4 μg/animal, egg deposition after 7 days. Here is the method: Rhipicephalus (Boophilus) Microplus—Injection Test
(§1) Solvent: dimethyl sulfoxide
To produce a suitable preparation of active compound, 10 mg of active compound are dissolved in 0.5 mL solvent, and the concentrate is diluted with solvent to the desired concentration.
Five adult engorged female ticks (Rhipicephalus microplus) are injected with 1 μL compound solution into the abdomen. The ticks are transferred into replica plates and incubated in a climate chamber.
(§2) After 7 days egg deposition of fertile eggs is monitored. Eggs where fertility is not visible are stored in a climate chamber till hatching after about 42 days. An efficacy of 100% means all eggs are infertile; 0% means all eggs are fertile.

The subject of test [2] is adult flies Musca domestica strain WHO-N. In words: Musca domestica test (MUSCDO surface treatment & contact assay). The following applies: surface concentration 20 mg/m^2, 30 min exposure, 24 hours after contact, read-out: efficacy (mortality). The protocol:
Musca domestica Test (MUSCDO Surface Treatment & Contact Assay)
Solvent: Aceton+2000 ppm rapeseed oil methyl ester (RME)
This solution is pipetted onto a glazed tile and after evaporation of the acetone, adult flies of the species Musca domestica strain WHO-N are placed onto the dried surface. The exposure time is 30 minutes. Mortality in percent (%) is determined 24 hours after contact of the insects to the treated surface. 100% mortality means that all tested insects are dead, whereas 0% means that no insect died.

Test [3] has as its system engorged adult female cattle ticks (Rhipicephalus microplus) strain Parkhurst, SP-resistant. Description: Rhipicephalus (Boophilus) microplus dip test. The following applies: 100 ppm, egg deposition after 7 days. Here is the method:
Rhipicephalus (Boophilus) Microplus—Dip Test
Test animal: cattle ticks (Rhipicephalus microplus) strain Parkhurst, SP-resistant
as §1
To produce a suitable preparation of active compound, 10 mg of active compound are dissolved in 0.5 mL solvent, and the concentrate is diluted with water to the desired concentration.
This compound solution is pipetted into tubes. 8-10 engorged, adult, female cattle ticks (Rhipicephalus microplus) are placed in perforated tubes. These tubes are immersed in the aqueous compound solution until the ticks are completely moistened. After the liquid has drained off, the ticks are transferred to a filter paper in a plastic tray and stored in a climate chamber.
as §2

The subject of test [4] is green peach aphid (Myzus persicae). Description: Myzus persicae spray test (MYZUPE). The conditions noted are these: 120 h, 100 g/ha, after 5 days. The method, boiled down: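 Percent aphid kill, with 0% meaning none killed, was read 5 days after spraying. The preparation (acetone–DMF solvent, water with 1000 ppm emulsifier) was applied to Brassica pekinensis leaf disks carrying mixed-instar green peach aphids.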

Test [5] has as its system cattle tick larvae (Rhipicephalus microplus), strain Parkhurst, resistant against synthetic pyrethroids. Description: Rhipicephalus (Boophilus) microplus in-vitro contact test, larval cattle tick. The following applies: 5 μg/cm^2 (=500 g/ha), after 48 hours. The method, boiled down:
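Larvae exposed by contact to a dried acetone film on glass; a 900 ppm solution yields 5 μg/cm^2. Scoring after 48 h at 27° C. counts dead plus moribund larvae as efficacy.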

The test system of test [6] is fall armyworm larvae (Spodoptera frugiperda). In words: whole plant or invertebrate. The conditions noted are these: 168 h. The method, boiled down:
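Percent kill of Spodoptera frugiperda caterpillars, read 7 days after infestation of dried, spray-treated Zea mays leaf pieces. Spray preparation: compound in acetone plus dimethylformamide, diluted with emulsifier-containing water.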

Test [7] deals with adult brown dog ticks (Rhipicephalus sanguineus). In words: Rhipicephalus sanguineus in-vitro contact test, adult brown dog ticks. The conditions noted are these: 48 h, read-out: efficacy (ticks dead or moribund). The method, boiled down: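 Glass tubes are coated with compound dissolved in acetone, a 900 ppm solution yielding 5 μg/cm^2 on the inner surface. Adult ticks (5-10 per tube) are kept on the dry film at room temperature for 48 h, then those unable to escape 45-50° C heat are counted as dead or moribund.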

The test system of test [8] is adult unfed cat fleas (Ctenocephalides felis). In words: Ctenocephalides felis oral test. The conditions noted are these: 48 h. The protocol: Ctenocephalides felis—Oral Test
as §1
To produce a suitable preparation of active compound, 10 mg of active compound are dissolved in 0.5 mL solvent, and the concentrate is diluted with citrated cattle blood to the desired concentration.
Approximately 20 adult unfed cat fleas (Ctenocephalides felis) are placed in a flea chamber whose top and bottom is covered with gauze. A chamber whose bottom is sealed with parafilm, is filled with the blood-compound solution and placed on top of the flea chamber, so that the fleas can suck the blood. The blood chamber is heated to 37° C. whereas the flea chamber is kept at room temperature.
After 2 days mortality in % is determined. 100% means all the fleas have been killed; 0% means none of the fleas have been killed.

The subject of test [9] is adult mosquitoes Aedes aegypti strain MONHEIM. Description: Aedes aegypti test (AEDSAE surface treatment & contact assay). The conditions noted are these: 24 hours after contact, read-out: efficacy (mortality). The method, boiled down: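 Compound in acetone containing 2000 ppm rapeseed oil methyl ester applied to a glazed tile and dried; adult mosquitoes exposed on the treated surface for 30 minutes. Percent mortality scored 24 hours after contact (100% = all dead, 0% = none dead).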

As for `C[C@H](NC(=O)c1cc(Br)cc(OC(F)(F)F)c1)c1ncnn1-c1cc(C#N)ncn1` [I-1, 3-bromo-N-{(1S)-1-[1-(6-cyanopyrimidin-4-yl)-1H-1,2,4-triazol-5-yl]ethyl}-5-(trifluoromethoxy)benzamide], the “efficacy (infertile eggs)” value in test [1] and in test [3] was 100% in each case. Also, the mortality (in general, the share of the test organisms that died) at 20 mg/m2 in test [2] was 80 to 100%; in test [9] (surface concentration 20 mg/m^2, 30 min exposure) it was 80 to 100%. The mortality at 100 g/ha in [4] was 90%; in [6] it was 100%. Also, the “efficacy (larvae dead or moribund)” value in test [5] is listed as 100%. Further, the Emax at 20 g/ha in test [6] (SPODFR, 20 g ai/ha, 7 dat (Table 3), read-out: % Efficacy) was 100%. For the same molecule, the pest or weed control at 5 µg/cm2, 500 g/ha in [7] amounted to 100%. Also, the mortality at 100 ppm in test [8] turned out to be 100%. For the same molecule, the mortality at 4 mg/m2 in test [9] (surface concentration 4 mg/m^2, 30 min exposure) was in the range of 80 to 100%.
